Entries after “also recorded” stand apart in the source; their conditions may differ.

From patent US7060875B2, “Methods for delaying leaf senescence using the ORE7 gene” (Postech Foundation, priority 2001, dated 2006) come the findings set out here.

The test system of assay [1] is wild type Arabidopsis thaliana (Col). Nature of the assay: Photosynthesis activity (Fv/Fm of PS II) of leaves after phytohormone treatment. The assay is classed as in vivo. The conditions noted are these: wild type leaves at 25 DAG; 50 μM ABA or 50 μM MeJA in MES buffer, or 4.5 μM ethylene gas; 22° C., continuous light. On the procedure:
(§1) In order to measure photosynthesis activity, a method of Oh et al. (Oh S. A. et al., Plant Mol. Biol., 30: 939, 1996), was used. First, leaves at the respective DAG were dark-treated for 15 minutes and measured for fluorescence of chlorophylls using Plant Efficiency Analyzer (Hansatech). The photosynthesis activity was expressed as photochemical efficiency of photosystem II (PS II) using a fluorescent property of chlorophylls. The photochemical efficiency was expressed as the ratio of maximum variable fluorescence (Fv) to maximum value of fluorescence (Fm) (Fv/Fm). As the ratio is increased, the photosynthesis activity improves.
(§2) Further, in the present invention, a change in leaf longevity of the ore7 mutant according to treatment with phytohormones, such as ABA, MeJA and ethylene that are involved in senescence regulation was examined by measuring changes in photosynthesis activity and chlorophyll content. 12 independent leaves at 25 DAG were floated in 2 ml of MES buffer containing 50 μM ABA or 50 μM MeJA. Treatment with ethylene was carried out by culturing Arabidopsis thaliana in a glass box containing 4.5 μM ethylene gas. As a negative control group, MES buffer not containing ABA or MeJA was used. The treatments with phytohormones as described above were carried out for three days at 22° C. with continuous exposure to light. The chlorophyll content and the photosynthesis activity were measured in the same manner as described in Example 2.

The subject of assay [2] is longevity-extended mutant ore7. It counts as in vivo, Arabidopsis thaliana. The conditions noted are these: ore7 mutant leaves at 25 DAG; 50 μM ABA or 50 μM MeJA in MES buffer, or 4.5 μM ethylene gas; 22° C., continuous light. On the procedure: as §1, §2
The subject of assay [3] is wild type Arabidopsis thaliana (Col). The experiment in a line: Chlorophyll content of leaves after phytohormone treatment. The assay is classed as in vivo. The conditions noted are these: wild type leaves at 25 DAG; 50 μM ABA or 50 μM MeJA in MES buffer, or 4.5 μM ethylene gas; 22° C., continuous light. On the procedure: (§3) In order to measure the chlorophyll content, the respective sample leaves were boiled in 95% ethanol at 80° C., thereby extracting chlorophyll. The chlorophyll content was measured at absorbance of 648 nm and 664 nm, and expressed as chlorophyll concentration per fresh weight of leaves (Vermon et al., Anal. Chem., 32:1142–1150, 1960).
as §2

For assay [4], the system named is longevity-extended mutant ore7. It counts as in vivo, Arabidopsis thaliana. The conditions noted are these: ore7 mutant leaves at 25 DAG; 50 μM ABA or 50 μM MeJA in MES buffer, or 4.5 μM ethylene gas; 22° C., continuous light. On the procedure: as §3, §2
This is another data set of the same source.

Assay [5] concerns wild type Arabidopsis thaliana (Col). The experiment in a line: Northern blot analysis of SEN4 expression after phytohormone treatment. The assay is classed as in vivo. The conditions noted are these: wild type compared to ore7 mutant; 0, 3, 4 and 5 days after treatment.

`CC1=CC(=O)CC(C)(C)[C@@]1(O)/C=C/C(C)=C\C(=O)O` [ABA, abscisic acid]: the “change in photosynthesis activity” value is “significantly reduced; also recorded: rapidly decreased” in assay [1] and “slight decrease” in assay [2]. Besides, the “change in chlorophyll content” value in assay [3] is recorded as “significantly reduced”. Further, the “reduction in chlorophyll content” value in assay [4] is recorded as “became blunt”. For the same compound, the “expression of SEN4 gene” value in assay [5] is “highly increased”.

Take `CC/C=C\CC1C(=O)CCC1CC(=O)OC` (stereo not drawn) [MeJA, methyl jasmonate]: the “change in photosynthesis activity” value in assay [1] is given as “significantly reduced; also recorded: rapidly decreased”; in assay [2], “slight decrease”. Further, the “change in chlorophyll content” value in assay [3] is recorded as “significantly reduced”. In addition, in assay [4], the “reduction in chlorophyll content” value is “became blunt”. In addition, the “expression of SEN4 gene” value in assay [5] is “highly increased”.

On to `C=C` [ethylene], for which the “change in photosynthesis activity” value is given as “significantly reduced; also recorded: rapidly decreased” in assay [1] and “slight decrease” in assay [2]. Moreover, the “change in chlorophyll content” value in assay [3] was “significantly reduced”. Further, the “reduction in chlorophyll content” value in assay [4] is recorded as “became blunt”. For the same compound, the “expression of SEN4 gene” value in assay [5] was “highly increased”.
